This passage reports EC50 results from BindingDB's records for doi:10.1016/j.bmcl.2019.05.029 (Novira Therapeutics, 2019).

This test can be described thus: Binding affinity to capsid protein in Hepatitis B virus infected in human HepG2.2.15 cells assessed as inhibition of HBV DNA replication incubated for 3 days followed by replacement of fresh medium containing compound and measured after 3 days by chemiluminescent assay.

With `CC(O)C1CCCCN(S(=O)(=O)c2cc(C(=O)Nc3ccc(F)c(Cl)c3)ccc2F)C1` (centres undefined), the EC50 came to 0.14 µM.
The same measure for `O=C(Nc1ccc(F)c(Cl)c1)c1ccc(F)c(S(=O)(=O)N2CCSCC(O)C2)c1` (centres undefined): 0.17 µM; for `O=C(Nc1ccc(F)c(Cl)c1)c1ccc(F)c(S(=O)(=O)N2CCCCC(O)C2)c1` (centres undefined): 0.17 µM.
The figure for `O=C(Nc1ccc(F)c(Cl)c1)c1ccc(F)c(S(=O)(=O)N2CCOC[C@H](O)C2)c1` is 0.063 µM; for `COC1COCCN(S(=O)(=O)c2cc(C(=O)Nc3ccc(F)c(Cl)c3)ccc2F)C1` (centres undefined) it is 0.13 µM.
The same measure for `O=C(Nc1ccc(F)c(Cl)c1)c1ccc(F)c(S(=O)(=O)N2CCCCC(O)CC2)c1` (centres undefined): 0.052 µM; for `CC1(O)CCCCN(S(=O)(=O)c2cc(C(=O)Nc3ccc(F)c(Cl)c3)ccc2F)C1` (centres undefined): 0.12 µM.
For `O=C(Nc1ccc(F)c(Cl)c1)c1ccc(F)c(S(=O)(=O)N2CCCCCCC2O)c1` (centres undefined), the concentration for a half-maximal effect (EC50) is 0.12 µM.
The figure for `CN1CCN(S(=O)(=O)c2cc(C(=O)Nc3ccc(F)c(Cl)c3)ccc2F)CC(O)C1` (centres undefined) is 0.47 µM.
As for `O=C(Nc1ccc(F)c(Cl)c1)c1ccc(F)c(S(=O)(=O)N2CCOC[C@@H](O)C2)c1`, the EC50 is 0.14 µM.
As to `O=C(Nc1ccc(F)c(Cl)c1)c1ccc(F)c(S(=O)(=O)N2CCOCC(O)C2)c1` (centres undefined), the EC50 is 0.1 µM.
In the case of `O=C(Nc1ccc(F)c(Cl)c1)c1ccc(F)c(S(=O)(=O)N2CCCC(O)CC2)c1` (centres undefined), the EC50 worked out at 0.14 µM.
The figure for `O=C(Nc1ccc(F)c(Cl)c1)c1ccc(F)c(S(=O)(=O)N2CCCCCC(O)C2)c1` (centres undefined) is 0.06 µM; for `CC1(O)CCCN(S(=O)(=O)c2cc(C(=O)Nc3ccc(F)c(Cl)c3)ccc2F)CC1` (centres undefined) it is 0.11 µM; for `CC1(O)COCCN(S(=O)(=O)c2cc(C(=O)Nc3ccc(F)c(Cl)c3)ccc2F)C1` (centres undefined) it is 0.1 µM.
`O=C(Nc1ccc(F)c(Cl)c1)c1ccc(F)c(S(=O)(=O)N2CCOCC(F)C2)c1` (centres undefined): the EC50 was 0.08 µM.
Consider `O=C(Nc1ccc(F)c(Cl)c1)c1ccc(F)c(S(=O)(=O)N2CCCCC(F)(F)C2)c1`, for which the EC50 came out at 0.14 µM.
The figure for `O=C(Nc1ccc(F)c(Cl)c1)c1ccc(F)c(S(=O)(=O)N2CCCCC(CO)C2)c1` (centres undefined) is 0.14 µM.
The same measure for `CN1CCCN(S(=O)(=O)c2cc(C(=O)Nc3ccc(F)c(Cl)c3)ccc2F)CC1=O`: 0.22 µM.

As a reminder, the EC50 is the midpoint of the concentration-response curve.
